Source: ChEMBL document CHEMBL4665770, “Design and Discovery of Natural Cyclopeptide Skeleton Based Programmed Death Ligand 1 Inhibitor as Immune Modulator for Cancer Therapy” (J Med Chem, 2020)

Assays:
[1] = target: Programmed cell death protein 1/Programmed cell death 1 ligand 1 (Homo sapiens, UniProt Q9NZQ7); assay: Inhibition of PD1-Tag2/PD-L1-Tag1 (unknown origin) protein-protein interaction preincubated for 15 mins followed by addition of anti-Tag1-Eu3+ and anti-Tag2-XL665 measured after 3 hrs by HTRF assay; type: protein-complex assay
[2] = target: Programmed cell death protein 1/Programmed cell death 1 ligand 1 (Homo sapiens) (UniProt Q15116+Q9NZQ7); assay: Inhibition of PD1-Tag2/PD-L1-Tag1 (unknown origin) protein-protein interaction at 20 uM preincubated for 15 mins followed by addition of anti-Tag1-Eu3+ and anti-Tag2-XL665 measured after 3 hrs by HTRF assay relative to control; type: protein-complex assay; details: time 195.0 min

Sequence of Programmed cell death protein 1/Programmed cell death 1 ligand 1 (Q15116 whole entry): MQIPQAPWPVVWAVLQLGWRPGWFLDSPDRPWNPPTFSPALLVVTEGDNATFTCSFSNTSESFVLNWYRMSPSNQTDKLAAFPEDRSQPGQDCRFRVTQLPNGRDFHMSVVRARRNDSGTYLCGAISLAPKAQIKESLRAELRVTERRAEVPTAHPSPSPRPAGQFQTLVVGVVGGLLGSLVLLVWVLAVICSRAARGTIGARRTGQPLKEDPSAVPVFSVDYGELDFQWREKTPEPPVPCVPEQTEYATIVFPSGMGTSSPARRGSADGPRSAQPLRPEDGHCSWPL
Sequence of Programmed cell death protein 1/Programmed cell death 1 ligand 1 (Q9NZQ7 whole entry): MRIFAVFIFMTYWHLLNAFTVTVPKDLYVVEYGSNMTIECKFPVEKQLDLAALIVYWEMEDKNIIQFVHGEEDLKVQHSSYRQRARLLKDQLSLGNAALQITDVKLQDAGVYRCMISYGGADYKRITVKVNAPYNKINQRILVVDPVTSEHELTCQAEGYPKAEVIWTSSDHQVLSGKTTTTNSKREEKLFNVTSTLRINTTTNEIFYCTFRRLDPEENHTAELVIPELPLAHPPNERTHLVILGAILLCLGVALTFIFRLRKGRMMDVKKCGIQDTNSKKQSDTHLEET

## CC(C)C[C@@H]1NC(=O)[C@H](CCCNC(=N)N)NC(=O)[C@H](C(C)C)NC(=O)[C@@H]2CCCN2C(=O)[C@@H](Cc2ccccc2)NC(=O)[C@H](CC(C)C)NC(=O)[C@H](CC(=O)O)NC(=O)[C@H](C)NC(=O)[C@@H]2CCCN2C(=O)[C@@H](Cc2ccccc2)NC1=O
[1]
  IC50: 8.1 µM
[2]
  inhibition: 66.4%

## CCCC[C@@H]1NC(=O)[C@H](CC(=O)O)NC(=O)[C@H]([C@@H](C)O)NC(=O)[C@@H]2CCCN2C(=O)[C@@H](Cc2c[nH]c3ccccc23)NC(=O)[C@H](CC(C)C)NC(=O)[C@H](CCCNC(=N)N)NC(=O)[C@H](C(C)C)NC(=O)[C@@H]2CCCN2C(=O)[C@@H](Cc2ccccc2)NC1=O
[1]
  IC50: 5.02 µM
[2]
  inhibition: 82.1%

## CC[C@H](C)[C@@H]1NC(=O)[C@H](CC(=O)O)NC(=O)[C@H]([C@@H](C)O)NC(=O)[C@@H]2CCCN2C(=O)[C@@H](Cc2c[nH]c3ccccc23)NC(=O)[C@H](CC(C)C)NC(=O)[C@H](CCCNC(=N)N)NC(=O)[C@H]([C@@H](C)CC)NC(=O)[C@@H]2CCCN2C(=O)[C@@H](Cc2ccccc2)NC1=O
[1]
  IC50: 5.37 µM
[2]
  inhibition: 80.4%

## CC(C)C[C@@H]1NC(=O)[C@H](CC(=O)O)NC(=O)[C@H](C(C)C)NC(=O)[C@@H]2CCCN2C(=O)[C@@H](Cc2ccccc2)NC(=O)[C@H](CC(C)C)NC(=O)[C@H](CCCNC(=N)N)NC(=O)[C@H](C(C)C)NC(=O)[C@@H]2CCCN2C(=O)[C@@H](Cc2ccccc2)NC1=O
[1]
  IC50: 9.63 µM
[2]
  inhibition: 57.3%

## CC(C)C[C@@H]1NC(=O)[C@H](CC(=O)O)NC(=O)[C@H]([C@@H](C)O)NC(=O)[C@@H]2CCCN2C(=O)[C@@H](Cc2ccccc2)NC(=O)[C@H](CC(C)C)NC(=O)[C@H](CCCNC(=N)N)NC(=O)[C@H](C(C)C)NC(=O)[C@@H]2CCCN2C(=O)[C@@H](Cc2ccccc2)NC1=O
[1]
  IC50: 6.35 µM
[2]
  inhibition: 72.4%

## CC(C)C[C@@H]1NC(=O)[C@H](CCCNC(=N)N)NC(=O)[C@H](C(C)C)NC(=O)[C@@H]2CCCN2C(=O)[C@@H](Cc2ccccc2)NC(=O)[C@H](C)NC(=O)[C@H](CC(=O)O)NC(=O)[C@H](C)NC(=O)[C@@H]2CCCN2C(=O)[C@@H](Cc2ccccc2)NC1=O
[1]
  IC50: 27.5 µM
[2]
  inhibition: 51.9%

## CC(C)C[C@@H]1NC(=O)[C@H](CC(=O)O)NC(=O)[C@H](C(C)C)NC(=O)[C@@H]2CCCN2C(=O)[C@@H](Cc2c[nH]c3ccccc23)NC(=O)[C@H](CC(C)C)NC(=O)[C@H](CCCNC(=N)N)NC(=O)[C@H](C(C)C)NC(=O)[C@@H]2CCCN2C(=O)[C@@H](Cc2ccccc2)NC1=O
[1]
  IC50: 7.42 µM
[2]
  inhibition: 66.8%
